Results published in US7935724B2, “Thiophene and benzothiophene hydroxamic acid derivatives” (Merck HDAC Research, LLC, priority 2003, dated 2011).
Where two headings read alike, the source gives them in different places.

Legend:
[1] = target: T1, histone deacetylase, subtype 1 (HDAC1) (Homo sapiens, UniProt Q13547); assay: HDAC1-Flag assay (in vitro deacetylation assay); assay type: biochemical; details: concentration for 50% inhibition of deacetylation, substrate at Km, unit inferred, text gives nm, read-out: HDAC Inhibition
T1 construct: Flag; made in house
T1 sequence (Q13547 whole entry): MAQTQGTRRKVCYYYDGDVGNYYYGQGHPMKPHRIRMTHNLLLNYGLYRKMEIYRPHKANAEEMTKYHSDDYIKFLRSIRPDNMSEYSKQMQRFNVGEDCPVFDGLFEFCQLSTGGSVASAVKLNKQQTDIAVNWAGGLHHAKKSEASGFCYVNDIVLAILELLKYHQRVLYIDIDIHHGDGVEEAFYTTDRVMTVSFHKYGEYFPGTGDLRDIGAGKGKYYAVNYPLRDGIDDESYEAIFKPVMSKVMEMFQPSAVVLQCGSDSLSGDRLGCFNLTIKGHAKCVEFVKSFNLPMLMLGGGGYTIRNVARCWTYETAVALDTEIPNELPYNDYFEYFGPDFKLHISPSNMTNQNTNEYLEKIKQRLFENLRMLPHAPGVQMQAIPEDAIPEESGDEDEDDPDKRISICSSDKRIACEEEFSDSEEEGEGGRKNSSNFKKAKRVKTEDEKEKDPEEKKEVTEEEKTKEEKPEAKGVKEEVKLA
Method: Novel compounds were tested for their ability to inhibit histone deacetylase, subtype 1 (HDAC1) using an in vitro deacetylation assay. The enzyme source for this assay was an epitope-tagged human HDAC1 complex immuno-purified from stably expressing mammalian cells. The substrate consisted of a commercial product containing an acetylated lysine side chain (BIOMOL Research Laboratories, Inc., Plymouth Meeting, Pa.). Upon deacetylation of the substrate by incubation with the purified HDAC1 complex, a fluorophore is produced that is directly proportional to the level of deacetylation.

[2] = tested on: murine erythroleukemia cell line SC9; assay: MTS assay (Cell Titer 96 Aqueous One Solution Cell Proliferation Assay); assay type: cell-based; details: unit inferred, unit nm
Method: The novel compounds of the present invention were tested for their ability to inhibit proliferation of the murine erythroleukemia cell line SC9.
The MTS assay, also referred to as the Cell Titer 96 Aqueous One Solution Cell Proliferation Assay, is a calorimetric method for determining the number of viable cells in proliferation, cytotoxicity or chemosensitivity assays. The MTS reagent contains a novel tetrazolium compound [3-(4,5-dimethylthiazol-2-yl)-5-(3-carboxymethoxyphenyl)-2-(4-sulfophenyl)-2H-tetrazolium, inner salt] and electron coupling reagent (phenazine ethosulfate;PES). Murine erythroleukemia cells (SC-9) were incubated with vehicle or increasing concentrations of compound for 48 hours. Cell proliferation was quantitated by adding a small amount of the MTS reagent directly to culture wells, incubating for 1-4 hours and then recording the absorbance at 490 nm with a 96-well plate reader. The quantity of formazan product, as measured by […] absorbance, is directly proportional to the number of living cells in culture.

[3] = Table 1, benzothiophene backbone
[4] = Mus musculus, SC9, 48 h, Table 3, concentration inhibiting proliferation of SC9 cells

Row | Structure (SMILES) | IC50 [1, 3] | further results
1 | O=C(Cc1ccccc1)Nc1ccc2cc(C(=O)NO)sc2c1 [Compound 6] | 11.5 ± 2.1 nM | IC50 [2, 4]: 250 ± 57.2 nM
2 | O=C(NO)c1cc2ccc(NS(=O)(=O)c3cccc4ccccc34)cc2s1 [Compound 13] | 26 ± 1.4 nM | IC50 [2, 4]: 441 nM
3 | O=C(NO)c1cc2ccc(NS(=O)(=O)c3ccc4ccccc4c3)cc2s1 [Compound 14] | 21.5 ± 3.5 nM | IC50 [2, 4]: 917 nM
4 | O=C(NO)c1cc2cc(NC(=O)c3cccc4ccccc34)ccc2s1 [Compound 25] | 140 ± 14.1 nM | IC50 [2, 4]: 545 nM
5 | O=C(NO)c1cc2ccc(NC(=O)C(c3ccccc3)c3ccccc3)cc2s1 [Compound 28] | 79.5 ± 0.7 nM | IC50 [2, 4]: 696 nM
6 | O=C(NO)c1cc2ccc(NC(=O)c3cccc4ccccc34)cc2s1 [Compound 33] | 79 ± 11.3 nM | IC50 [2, 4]: 785 nM
7 | O=C(Nc1ccc2sc(C(=O)NO)cc2c1)OCc1ccccc1 [Compound 36] | 119 nM | IC50 [2, 4]: 717 nM
8 | O=C(NO)c1cc2cc(NC(=O)C(c3ccccc3)c3ccccc3)ccc2s1 [Compound 39] | 189 ± 4.9 nM | IC50 [2, 4]: 666 nM
9 | O=C(Cc1ccccc1)Nc1ccc(C(=O)NO)s1 [Compound 59] | – | IC50 ([1]; Table 2, thiophene backbone): 63.5 ± 7.7 nM; IC50 [2, 4]: 642 nM
10 | CCC(C(=O)Nc1ccc2sc(C(=O)NO)cc2c1)c1ccccc1 (stereo not shown) [Compound 86] | 92.5 ± 23.3 nM | IC50 [2, 4]: 836 ± 28.9 nM
11 | O=C(Cc1ccc(Cl)cc1)Nc1ccc2cc(C(=O)NO)sc2c1 [Compound 88] | 19 ± 5.6 nM | IC50 [2, 4]: 238 nM
12 | COc1ccc(CC(=O)Nc2ccc3cc(C(=O)NO)sc3c2)cc1 [Compound 89] | 19.5 ± 0.7 nM | IC50 [2, 4]: 205 ± 37.5 nM
13 | O=C(CN1CCC(Cc2ccccc2)CC1)Nc1ccc2cc(C(=O)NO)sc2c1 [Compound 90] | 99.5 ± 37.4 nM | IC50 [2, 4]: 704 ± 96.1 nM
14 | O=C(CN1CCN(C(=O)OCc2ccccc2)CC1)Nc1ccc2cc(C(=O)NO)sc2c1 [Compound 91] | 178 ± 55.8 nM | IC50 [2, 4]: 899 nM
15 | O=C(CN(Cc1ccccc1)Cc1ccccc1)Nc1ccc2cc(C(=O)NO)sc2c1 [Compound 93] | 316 ± 56.5 nM | IC50 [2, 4]: 751 nM
16 | CCC(C(=O)Nc1ccc2cc(C(=O)NO)sc2c1)c1ccccc1 (stereo not shown) [Compound 98] | 41.5 ± 2.1 nM | IC50 ([2]; Table 3, concentration inhibiting proliferation of SC9 cells, 48 hours): 225 ± 26.7 nM
17 | O=C(NO)c1cc2cc(CNCc3ccccc3)ccc2s1 [Compound 99] | 144 ± 53 nM | IC50 [2, 4]: 474 ± 65.7 nM
18 | COc1cccc(N2CCN(CC(=O)Nc3ccc4cc(C(=O)NO)sc4c3)CC2)c1 [Compound 100] | 45 ± 5.6 nM | IC50 [2, 4]: 519 ± 65.7 nM
19 | O=C(CN1CCN(c2ncccn2)CC1)Nc1ccc2cc(C(=O)NO)sc2c1 [Compound 101] | 59 ± 7 nM | IC50 [2, 4]: 830 ± 393 nM
20 | CN(C(=O)Cc1ccccc1)c1ccc2cc(C(=O)NO)sc2c1 [Compound 106] | 74.5 ± 17.6 nM | IC50 [2, 4]: 537 ± 124 nM
21 | COc1ccccc1N1CCN(CC(=O)Nc2ccc3cc(C(=O)NO)sc3c2)CC1 [Compound 107] | 79 ± 5.6 nM | IC50 [2, 4]: 309 nM
22 | O=C(CN1CCN(c2ccccn2)CC1)Nc1ccc2cc(C(=O)NO)sc2c1 [Compound 108] | 50 ± 11.3 nM | IC50 [2, 4]: 442 nM
23 | O=C(CN1CCCN(C(=O)OCc2ccccc2)CC1)Nc1ccc2cc(C(=O)NO)sc2c1 [Compound 121] | 184 ± 58.2 nM | –
24 | CCOC(=O)N1CCN(CC(=O)Nc2ccc3cc(C(=O)NO)sc3c2)CC1 [Compound 122] | 163 ± 35.2 nM | –
25 | COc1ccc(N2CCN(CC(=O)Nc3ccc4cc(C(=O)NO)sc4c3)CC2)cc1 [Compound 124] | 177 ± 16 nM | –

Row | Structure (SMILES) | IC50 [1, 3] | further results
26 | O=C(NO)c1cc2ccc(NC(=O)C3(c4ccc(Cl)cc4)CC3)cc2s1 [Compound 125] | 164 ± 1.4 nM | –
27 | O=C(NCCc1cc2ccccc2[nH]1)c1ccc2cc(C(=O)NO)sc2c1 [Compound 128] | 144 ± 63.7 nM | –
28 | O=C(NC1CCN(Cc2ccccc2)CC1)c1ccc2cc(C(=O)NO)sc2c1 [Compound 129] | 261 ± 89.2 nM | –
29 | O=C(NCC(c1ccccc1)c1ccccc1)c1ccc2cc(C(=O)NO)sc2c1 [Compound 130] | 162 ± 40.3 nM | –
30 | O=C(NC(Cc1ccccc1)c1ccccc1)c1ccc2cc(C(=O)NO)sc2c1 (stereo not shown) [Compound 131] | 223 ± 11.3 nM | –
31 | O=C(NC(c1ccccc1)c1ccccc1)c1ccc2cc(C(=O)NO)sc2c1 [Compound 132] | 284 ± 45.2 nM | –
32 | O=C(NCc1nc2ccccc2[nH]1)c1ccc2cc(C(=O)NO)sc2c1 [Compound 133] | 30.3 ± 6.5 nM | –
33 | O=C(NCCc1ccccn1)c1ccc2cc(C(=O)NO)sc2c1 [Compound 134] | 146 ± 10.3 nM | –
34 | O=C(NC1CCCc2ccccc21)c1ccc2cc(C(=O)NO)sc2c1 (stereo not shown) [Compound 135] | – | IC50 [2, 4]: 836 nM
35 | O=C(NO)c1cc2ccc(C(=O)N3CCCCC3)cc2s1 [Compound 136] | 424 ± 72.7 nM | –
36 | O=C(Nc1ccccc1)c1ccc2cc(C(=O)NO)sc2c1 [Compound 137] | 615 ± 207 nM | –
37 | O=C(NC1CCc2ccccc21)c1ccc2cc(C(=O)NO)sc2c1 (stereo not shown) [Compound 138] | 922 ± 174 nM | –
38 | O=C(NO)c1cc2ccc(C(=O)N3CCN(c4ccccc4)CC3)cc2s1 [Compound 139] | 176 ± 13.4 nM | –
39 | O=C(NO)c1cc2cc(CNC(c3ccccc3)c3ccccc3)ccc2s1 [Compound 140] | 869 ± 108 nM | –
40 | O=C(NO)c1cc2cc(CNCc3nc4ccccc4[nH]3)ccc2s1 [Compound 141] | 116 ± 3.5 nM | –
41 | COc1ccc(CCNCc2ccc3sc(C(=O)NO)cc3c2)cc1OC [Compound 143] | 325 ± 57.4 nM | –
42 | O=C(NO)c1cc2cc(CNCCc3ccc(OCc4ccccc4)c(OCc4ccccc4)c3)ccc2s1 [Compound 144] | 1580 ± 334 nM | –
43 | O=C(NO)c1cc2cc(CNCc3ccccc3Cl)ccc2s1 [Compound 149] | 96.5 ± 34.4 nM | –
44 | O=C(NO)c1cc2cc(CNCc3cccc(Cl)c3)ccc2s1 [Compound 150] | 144.5 ± 0.7 nM | –
45 | O=C(NO)c1cc2cc(CNCC(c3ccccc3)c3ccccc3)ccc2s1 [Compound 152] | 415 ± 91.6 nM | –
46 | O=C(NO)c1cc2ccc(C(=O)N3CCN(c4ccc(Cl)cc4)CC3)cc2s1 [Compound 158] | 441 ± 98.2 nM | –
47 | CC(C)(C(=O)Nc1ccc2cc(C(=O)NO)sc2c1)c1ccc(Cl)cc1 [Compound 159] | 536 ± 168 nM | –
48 | O=C(NCCCc1ccccc1)c1ccc2cc(C(=O)NO)sc2c1 [Compound 160] | 90 ± 11.3 nM | –
49 | O=C(NCCc1ccccc1)c1ccc2cc(C(=O)NO)sc2c1 [Compound 161] | 58 nM | –
50 | O=C(NO)c1cc2cc(CNCCN3CCOCC3)ccc2s1 [Compound 163] | 734 ± 34.6 nM | –

Row | Structure (SMILES) | IC50 [1, 3] | further results
51 | O=C(NO)c1cc2cc(CNc3cccc(OCc4ccccc4)c3)ccc2s1 [Compound 165] | 269 ± 63.6 nM | –
52 | COc1ccccc1CNC(=O)c1ccc2sc(C(=O)NO)cc2c1 [Compound 166] | 90 ± 5.6 nM | –
53 | COc1cccc(CNC(=O)c2ccc3sc(C(=O)NO)cc3c2)c1 [Compound 167] | 94 ± 5.6 nM | –
54 | COc1ccc(CNC(=O)c2ccc3sc(C(=O)NO)cc3c2)cc1 [Compound 168] | 36 ± 1.4 nM | –
55 | O=C(NCc1ccccc1Cl)c1ccc2sc(C(=O)NO)cc2c1 [Compound 169] | 66.5 ± 2.1 nM | –
56 | O=C(NCc1cccc(Cl)c1)c1ccc2sc(C(=O)NO)cc2c1 [Compound 170] | 88 nM | –
57 | O=C(NCc1ccc(Cl)cc1)c1ccc2sc(C(=O)NO)cc2c1 [Compound 171] | 63.5 ± 4.9 nM | –
58 | O=C(NC1CCc2ccccc21)c1ccc2sc(C(=O)NO)cc2c1 (stereo not shown) [Compound 172] | 1360 ± 47.3 nM | –
59 | O=C(NCCc1c[nH]c2ccccc12)c1ccc2sc(C(=O)NO)cc2c1 [Compound 173] | 129 ± 18.3 nM | –
60 | O=C(NCCC(c1ccccc1)c1ccccc1)c1ccc2sc(C(=O)NO)cc2c1 [Compound 174] | 428 ± 102 nM | –
61 | O=C(NCCCCc1ccccc1)c1ccc2sc(C(=O)NO)cc2c1 [Compound 175] | 154 ± 8.4 nM | –
62 | O=C(NCc1ccc(Cl)cc1)c1ccc2cc(C(=O)NO)sc2c1 [Compound 176] | 126 ± 31.1 nM | –
63 | O=C(CN(CC(=O)Nc1ccccc1)C(=O)c1ccc2sc(C(=O)NO)cc2c1)Nc1ccccc1 [Compound 179] | 102 ± 26.2 nM | –
64 | O=C(Nc1cccc2cccnc12)c1ccc2cc(C(=O)NO)sc2c1 [Compound 182] | 1070 ± 21.9 nM | –
65 | O=C(Nc1nc(-c2ccccc2)cs1)c1ccc2cc(C(=O)NO)sc2c1 [Compound 183] | 4140 ± 1890 nM | –
66 | O=C(NO)c1cc2ccc(COCc3ccccc3)cc2s1 [Compound 184] | 199 ± 35.3 nM | –
67 | O=C(NO)c1cc2ccc(C(=O)N3CCC(Cc4ccccc4)CC3)cc2s1 [Compound 190] | 170 ± 38.8 nM | –
68 | O=C(NO)c1cc2ccc(C(=O)N3CCN(Cc4ccccc4)CC3)cc2s1 [Compound 191] | 453 ± 114 nM | –
69 | O=C(NO)c1cc2ccc(CNCc3ccccc3)cc2s1 [Compound 192] | 53 nM | –
70 | COc1ccc(CN(Cc2ccc3cc(C(=O)NO)sc3c2)C2CCCCC2)cc1 [Compound 193] | 99 nM | –
71 | COc1ccc(CN(Cc2ccc3cc(C(=O)NO)sc3c2)C2CCOCC2)cc1 [Compound 194] | 76 nM | –
72 | O=C(CCc1ccc(C(=O)NO)s1)Nc1cccc(OCc2ccccc2)c1 [Compound 195] | – | IC50 ([1]; Table 2, thiophene backbone): 127 ± 11.3 nM
73 | O=C(CCc1ccc(C(=O)NO)s1)NCC1CCCCC1 [Compound 196] | – | IC50 ([1]; Table 2, thiophene backbone): 1450 ± 111 nM
74 | O=C(CCc1ccc(C(=O)NO)s1)Nc1nc2ccccc2s1 [Compound 197] | – | IC50 ([1]; Table 2, thiophene backbone): 134 ± 7.7 nM
75 | O=C(NO)c1cc(-c2ccccc2)cs1 [Compound 199] | – | IC50 ([1]; Table 2, thiophene backbone): 9260 ± 1180 nM
